Patent US12435091B2, “RNA-binding protein multimerization inhibitors and methods of use thereof” (THE UAB RESEARCH FOUNDATION, priority 2020, dated 2025)
Values after ≈ are worked out from the molar mass of the structure shown. Like-named read-outs stand apart in the source and are kept apart here.

Experiments:
[1] = aqueous solubility at pH 7.4; type: physicochemical; conditions: for solubility: aqueous medium at pH 7.4, pH 7.4, aqueous buffer, read-out: Sol @ pH 7.4
Method: (§3) Selected compounds were assessed for their aqueous solubility, Log D and mouse and human liver microsomal stability.

[2] = target: T1, HuR (Homo sapiens, UniProt Q15717); assay: cell-based split firefly luciferase-HuR dimerization assay; conditions: for IC50: read-out: HuR IC50
T1 construct: expressed in transfected cells; host or cells: U251 glioma cells, doxycycline-inducible constructs
T1 sequence (Q15717 whole entry): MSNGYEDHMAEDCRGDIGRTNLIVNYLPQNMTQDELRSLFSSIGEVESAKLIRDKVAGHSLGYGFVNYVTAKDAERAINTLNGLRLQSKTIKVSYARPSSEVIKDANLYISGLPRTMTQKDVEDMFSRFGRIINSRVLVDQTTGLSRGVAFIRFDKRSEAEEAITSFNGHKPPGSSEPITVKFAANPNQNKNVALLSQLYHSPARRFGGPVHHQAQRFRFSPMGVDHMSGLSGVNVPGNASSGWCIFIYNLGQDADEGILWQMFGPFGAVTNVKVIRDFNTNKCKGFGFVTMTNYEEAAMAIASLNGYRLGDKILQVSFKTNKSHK
Method: (§1) The oncogenic activity of HuR is driven by subcellular localization into the cytoplasm and formation of multimers of HuR. To develop cell based assays to characterize the ability of small molecules to disrupt this process, a split luciferase assay detecting the formation of HuR dimers was developed. The assays were performed in 96 well plates with clear bottom (Corning Inc., Corning, NY). Cells with designed constructs (30,000-50,000 in number) were plated per well; the constructs were induced by doxycycline (0.75 ug/ml) for 48 hours. The evaluated compounds at different concentrations and the corresponding vehicle as the control were administered for 6 hours. The luminescence signals were detected by using InfinitiM200 plate reader (TECAN, Morrisville, NC) in the presence of the luciferase substrate luciferin (D-Luciferin, potassium salt), which was purchased from GoldBio (St Louis, MO). A multichannel pipette (XL 3000I™, Denville Scientific, South Plainfield, NJ) was used in all procedures to ensure the experiment quality.
The assay used the coding sequence of HuR in frame with the N-terminus of firefly luciferase or the C-terminus as depicted in FIG. 2A. When HuR forms dimers in this case, luciferase is generated and with luciferin present, luminescence is generated.
(§2) Squares represent luminescence signal from reporter representing HuR dimers (U251 cells co-expressing HuR-Nluc and HuR-Cluc constructs); circles represent luminescence signal from control reporter (U251 cells expressing Fluc construct). Results are shown as mean+SD.

[3] = system: U251 cells expressing Fluc construct; assay: control Fluc (full length luciferase) reporter assay in U251 cells; type: cell-based; conditions: for inhibition at 50 µM / inhibition at 100 µM: Homo sapiens, U-251, 6 h, read-out: Fluc Imax % Inh; for inhibition at 50 µM: Concn 50 uM; for inhibition at 100 µM: Concn 100 uM
Method: as §1, with “quality. […]” for “quality.”
as §2

[4] = in vitro; conditions: human, liver microsomes
Method: as §3

[5] = Log D at pH 7.4; type: physicochemical
Method: as §3

[6] = Mouse liver microsomal stability in vitro; type: in vitro ADME; conditions: liver microsomes, read-out: MLM t1/2
Method: as §3

[7] = U251 cells co-expressing HuR-Nluc and HuR-Cluc, 6 hours of treatment
[8] = split luciferase HuR dimerization assay, compounds administered for 6 hours

Structure (SMILES)	HuR N/C Imax % Inh ([2]; Concn 50 uM)	IC50 [2, 7]	half-life [4]	logD [5]	IC50 [2, 8]	solubility [1]	half-life [6]	inhibition at 50 µM [3]	also measured
CN(c1cnn(C2CCOCC2)c1)c1ncc2nnn(-c3ccc4cn[nH]c4c3)c2n1 [Compound 3, 3-(1H-Indazol-6-yl)-N-methyl-N-(1-(tetrahydro-2H-pyran-4-yl)-1H-pyrazol-4-yl)-3H-[1,2,3]triazolo[4,5-d]pyrimidin-5-amine]	–	–	–	–	–	–	–	–	aqueous solubility (in words) [1]: poor aqueous solubility
c1cc2cn[nH]c2cc1-n1nnc2cnc(NC3CCOCC3)nc21 [Compound 4, 3-(1H-Indazol-6-yl)-N-(tetrahydro-2H-pyran-4-yl)-3H-[1,2,3]triazolo[4,5-d]pyrimidin-5-amine]	85%	5000 nM	–	–	–	–	–	36%	aqueous solubility (in words) [1]: improved aqueous solubility
CN(c1ccc2ncc(-c3ccc4cc[nH]c4c3)n2n1)C1CCOCC1 [Compound 13]	–	–	6.8 min	2.2	28000 nM	12.8 µM (≈ 4.45 µg/mL)	5.6 min	–	–
Cn1ncc2ccc(-c3cnc4ccc(NC5CCOCC5)nn34)cc21 [Compound 20]	93%	1200 nM	11.6 min	2.9	1200 nM	79.6 µM (≈ 27.7 µg/mL)	8.1 min	35%	–
FC1(F)CCC(Nc2ccc3ncc(-c4ccc5cn[nH]c5c4)n3n2)CC1 [Compound 23, N-(4,4-Difluorocyclohexyl)-3-(1H-indazol-6-yl)imidazo[1,2-b]pyridazin-6-amine]	92%	2800 nM	27.3 min	> 4.23	2800 nM	2.1 µM (≈ 0.774 µg/mL)	3.9 min	39%	–
CCCN(C)c1ccc2ncc(-c3ccc4cn[nH]c4c3)n2n1 [Compound 24, 3-(1H-Indazol-6-yl)-N-methyl-N-propylimidazo[1,2-b]pyridazin-6-amine]	–	2200 nM	9.7 min	> 4.18	2200 nM	10.9 µM (≈ 3.34 µg/mL)	3.1 min	–	HuR N/C Imax % Inh ([2]; Concn 100 uM): 93%; inhibition at 100 µM [3]: 10%
CN(c1ccc2ncc(-c3ccc4cn[nH]c4c3)n2n1)C1CCC(F)(F)CC1 [Compound 29]	–	–	82.8 min	0.9	–	77.3 µM (≈ 29.6 µg/mL)	15.3 min	–	HuR IC50 [2, 8]: Insoluble^b
CCCN(C)c1ccc2ncc(-c3ccc4cnn(C)c4c3)n2n1 [Compound 30, N-Methyl-3-(1-methyl-1H-indazol-6-yl)-N-propylimidazo[1,2-b]pyridazin-6-amine]	91%	2200 nM	7.9 min	> 4.55	2200 nM	2.5 µM (≈ 0.801 µg/mL)	1.3 min	36%	–
Cc1n[nH]c2cc(-c3cnc4ccc(N(C)C5CCOCC5)nn34)ccc12 [Compound 32, N-Methyl-3-(3-methyl-1H-indazol-6-yl)-N-(tetrahydro-2H-pyran-4-yl)imidazo[1,2-b]pyridazin-6-amine]	–	–	9 min	> 4.35	> 50000 nM	< 1 µM	7.3 min	–	–
CC1(C)CC(Nc2ccc3ncc(-c4ccc5[nH]ncc5c4)n3n2)CCO1 (stereo not drawn) [Compound 45, N-(2,2-Dimethyltetrahydro-2H-pyran-4-yl)-3-(1H-indazol-5-yl)imidazo[1,2-b]pyridazin-6-amine]	92%	1100 nM	7.2 min	> 4.06	1100 nM	3.4 µM (≈ 1.23 µg/mL)	8.7 min	25%	HuR inhibition activity (in words) [2]: potent activity
FC1(F)CCC(Nc2ccc3ncc(-c4ccc5[nH]ncc5c4)n3n2)CC1 [Compound 46, N-(4,4-Difluorocyclohexyl)-3-(1H-indazol-5-yl)imidazo[1,2-b]pyridazin-6-amine]	91%	2100 nM	11.5 min	> 4.16	2100 nM	1 µM (≈ 0.368 µg/mL)	4.4 min	17%	–
CCCNc1ccc2ncc(-c3ccc4[nH]ncc4c3)n2n1 [Compound 48]	90%	700 nM	6.1 min	–	700 nM	3.2 µM (≈ 0.936 µg/mL)	2.2 min	29%	–
FC(F)(F)CNc1ccc2ncc(-c3ccc4[nH]ncc4c3)n2n1 [Compound 50, 3-(1H-Indazol-5-yl)-N-(2,2,2-trifluoroethyl)imidazo[1,2-b]pyridazin-6-amine]	93%	190 nM	12.1 min	> 4.15	190 nM	2.6 µM (≈ 0.864 µg/mL)	2.6 min	26%	–
c1cc2cn[nH]c2cc1-c1cnc2ccc(OC3CCOCC3)nn12 [Compound 58]	82%	–	–	–	3000 nM	–	–	23%	–
Clc1ccc2ncc(-c3ccc4cn[nH]c4c3)n2n1 [SRI-43183]	–	–	–	–	–	–	–	–	HuR N/C Imax % Inh ([2]; Concn 100 uM): 76%; inhibition at 100 µM [3]: 20%
COc1ncccc1-c1cnn2ccc(N3CCN(C(=O)OC(C)C)CC3)nc12 [SRI-43414]	45%	> 50000 nM	–	–	–	–	–	28%	–

Continued, in another order:

HuR N/C Imax % Inh ([2]; Concn 50 uM)	IC50 [2, 7]	half-life [4]	logD [5]	IC50 [2, 8]	solubility [1]	half-life [6]	Structure (SMILES)	inhibition at 50 µM [3]	also measured
93%	4500 nM	–	–	–	–	–	c1nn(C2CCOCC2)cc1Nc1ncc2nnn(-c3ccc4cn[nH]c4c3)c2n1 [Compound A-92]	32%	maximum inhibition of HuR dimerization ([2]; after 6 hours of cell treatment): 93±2%; decrease of luminescence signal from cells overexpressing the control Fluc construct ([3]; 6 hours, represents the cytotoxic effect): 32±7%
–	> 100000 nM	–	–	–	–	–	FC(F)(F)c1nnc2ccc(NCCc3c[nH]c4ccccc34)nn12 [SRI-41639]	–	HuR N/C Imax % Inh ([2]; Concn 100 uM): 49%; inhibition at 100 µM [3]: 17%
–	> 100000 nM	–	–	–	–	–	Cc1cc(-c2cnn3c(NC[C@H]4C[C@@](C)(O)C4)cc(Oc4cccnc4)nc23)ccc1C(=O)NC1CC1 [SRI-41646]	–	HuR N/C Imax % Inh ([2]; Concn 100 uM): 3%; inhibition at 100 µM [3]: 15%
89%	> 25000 nM	–	–	–	–	–	CN1CCN(Cc2ccc(-c3cnc4[nH]cc(-c5ccc6[nH]ccc6c5)c4c3)cc2)CC1 [SRI-41647]	4%	–
0%	–	–	–	–	–	–	Clc1ncc2nnn(-c3ccc4cn[nH]c4c3)c2n1 [SRI-42123]	0%	–
82%	20000 to 22000 nM	–	–	–	–	–	Brc1cnc2ccc(NC3CCOCC3)nn12 [SRI-42219]	32%	–
57%	40000 nM	–	–	–	–	–	CN(CCNc1ccc2ncc(-c3ccc(C(N)=O)cc3)n2n1)C(=O)OC(C)(C)C [SRI-43415]	9%	–
0%	–	–	–	–	–	–	COc1ccc(-c2[nH]ncc2C(=O)NCC2CC2)cc1Cl [SRI-43649]	0%	–
0%	–	–	–	–	–	–	O=C(c1ccc2nsnc2c1)N1CCN(C(=O)C2CC2c2cccs2)CC1 (stereo not drawn) [SRI-43650]	0%	–
0%	–	–	–	–	–	–	Cc1ccc(S(=O)(=O)NC(C(=O)Oc2ccc3c4c(c(=O)oc3c2C)CCC4)c2ccccc2)cc1 (stereo not drawn) [SRI-43651]	0%	–
0%	–	–	–	–	–	–	CCC(C)NS(=O)(=O)c1ccc2oc(=O)ccc2c1 (stereo not drawn) [SRI-43652]	0%	–
0%	–	–	–	–	–	–	O=C(c1ccc(=O)[nH]c1)N1CCN(C(=O)C2CC2c2ccccc2)CC1 (stereo not drawn) [SRI-43653]	0%	–
0%	–	–	–	–	–	–	O=C(CCn1ccc(=O)[nH]c1=O)N1CCN(C(=O)C2CC2c2ccc3c(c2)OCO3)CC1 (stereo not drawn) [SRI-43654]	0%	–
28%	> 50000 nM	–	–	–	–	–	O=C(C1CCCC1)N1CCN(C(=O)C2CC2c2ccc3c(c2)OCO3)CC1 (stereo not drawn) [SRI-43655]	10%	–
